Key:
[1] = parabacteroides distasonis, 12 h, 2 µM
Description: The drug is tested on Parabacteroides distasonis strain: ATCC8503 for biotransformation. The drug concentrations were measured before and after a 12-h incubation by liquid-chromatography-coupled mass spectrometry (LC–MS)

[2] = The drug is tested on Bacteroides dorei strain: DSM17855 for biotransformation. The drug concentrations were measured before and after a 12-h incubation by liquid-chromatography-coupled mass spectrometry (LC–MS); settings: phocaeicola dorei, 2 µM
[3] = The drug is tested on Ruminococcus lactaris strain: ATCC29176 for biotransformation. The drug concentrations were measured before and after a 12-h incubation by liquid-chromatography-coupled mass spectrometry (LC–MS); settings: 2 µM
[4] = The drug is tested on Bacteroides caccae strain: ATCC43185 for biotransformation. The drug concentrations were measured before and after a 12-h incubation by liquid-chromatography-coupled mass spectrometry (LC–MS); settings: 2 µM
[5] = The drug is tested on Ruminococcus torques strain: ATCC27756 for biotransformation. The drug concentrations were measured before and after a 12-h incubation by liquid-chromatography-coupled mass spectrometry (LC–MS); type: ADME; design: dose 2 uM, timepoint 0 vs 12 hours; settings: 2 µM
[6] = bacteroides fragilis, 12 h, 2 µM
Description: The drug is tested on Bacteroides fragilis strain: 3397 (T10) for biotransformation. The drug concentrations were measured before and after a 12-h incubation by liquid-chromatography-coupled mass spectrometry (LC–MS)

[7] = The drug is tested on Bacteroides coprophilus strain: DSM18228 for biotransformation. The drug concentrations were measured before and after a 12-h incubation by liquid-chromatography-coupled mass spectrometry (LC–MS); settings: 2 µM
[8] = bacteroides thetaiotaomicron, 12 h, 2 µM
Description: The drug is tested on Bacteroides thetaiotaomicron strain: 7330 for biotransformation. The drug concentrations were measured before and after a 12-h incubation by liquid-chromatography-coupled mass spectrometry (LC–MS)

[9] = The drug is tested on Escherichia coli strain: BW25113 for biotransformation. The drug concentrations were measured before and after a 12-h incubation by liquid-chromatography-coupled mass spectrometry (LC–MS); settings: 2 µM
[10] = The drug is tested on Bacteroides sp. WH2 strain: WH2 for biotransformation. The drug concentrations were measured before and after a 12-h incubation by liquid-chromatography-coupled mass spectrometry (LC–MS); settings: bacteroides sp. wh2, 12 h, 2 µM
[11] = The drug is tested on Collinsella aerofaciens strain: ATCC25986 for biotransformation. The drug concentrations were measured before and after a 12-h incubation by liquid-chromatography-coupled mass spectrometry (LC–MS); settings: 2 µM
[12] = bacteroides intestinalis, 12 h, 2 µM
Description: The drug is tested on Bacteroides intestinalis strain: DSM17393 for biotransformation. The drug concentrations were measured before and after a 12-h incubation by liquid-chromatography-coupled mass spectrometry (LC–MS)

[13] = roseburia intestinalis, 12 h, 2 µM
Description: The drug is tested on Roseburia intestinalis strain: L1-82 for biotransformation. The drug concentrations were measured before and after a 12-h incubation by liquid-chromatography-coupled mass spectrometry (LC–MS)

[14] = The drug is tested on Dorea formicigenerans strain: ATCC27755 for biotransformation. The drug concentrations were measured before and after a 12-h incubation by liquid-chromatography-coupled mass spectrometry (LC–MS); settings: 2 µM
[15] = The drug is tested on Bifidobacterium breve strain: DSM20213 for biotransformation. The drug concentrations were measured before and after a 12-h incubation by liquid-chromatography-coupled mass spectrometry (LC–MS); settings: 2 µM
[16] = The drug is tested on Eubacterium ventriosum strain: ATCC27560 for biotransformation. The drug concentrations were measured before and after a 12-h incubation by liquid-chromatography-coupled mass spectrometry (LC–MS); type: ADME; design: dose 2 uM, timepoint 0 vs 12 hours; settings: 2 µM
[17] = The drug is tested on Bacteroides finegoldii strain: DSM17565 for biotransformation. The drug concentrations were measured before and after a 12-h incubation by liquid-chromatography-coupled mass spectrometry (LC–MS); settings: 2 µM
[18] = bifidobacterium adolescentis, 12 h, 2 µM
Description: The drug is tested on Bifidobacterium adolescentis strain: ATCC 15703 for biotransformation. The drug concentrations were measured before and after a 12-h incubation by liquid-chromatography-coupled mass spectrometry (LC–MS)

[19] = akkermansia muciniphila, 12 h, 2 µM
Description: The drug is tested on Akkermansia muciniphila strain: ATCC BAA-835 for biotransformation. The drug concentrations were measured before and after a 12-h incubation by liquid-chromatography-coupled mass spectrometry (LC–MS)

[20] = The drug is tested on Anaerotruncus colihominis strain: DSM17241 for biotransformation. The drug concentrations were measured before and after a 12-h incubation by liquid-chromatography-coupled mass spectrometry (LC–MS); settings: 2 µM

| Compound | Bacterial Biotransformation [1] | Bacterial Biotransformation [2] | Bacterial Biotransformation [3] | Bacterial Biotransformation [4] | Bacterial Biotransformation [5] | Bacterial Biotransformation [6] | Bacterial Biotransformation [7] | Bacterial Biotransformation [8] | Bacterial Biotransformation [9] | Bacterial Biotransformation [10] | Bacterial Biotransformation [11] | Bacterial Biotransformation [12] | Bacterial Biotransformation [13] | Bacterial Biotransformation [14] | Bacterial Biotransformation [15] | Bacterial Biotransformation [16] | Bacterial Biotransformation [17] | Bacterial Biotransformation [18] | Bacterial Biotransformation [19] | Bacterial Biotransformation [20] |
| --- | --- | --- | --- | --- | --- | --- | --- | --- | --- | --- | --- | --- | --- | --- | --- | --- | --- | --- | --- | --- |
| CCOC(=O)[C@H](CCc1ccccc1)N[C@@H](C)C(=O)N1Cc2ccccc2C[C@H]1C(=O)O | Compound metabolized | Compound metabolized | Compound NOT metabolized | Compound metabolized | Compound NOT metabolized | Compound metabolized | Compound metabolized | Compound metabolized | Compound NOT metabolized | Compound NOT metabolized | Compound NOT metabolized | Compound metabolized | Compound NOT metabolized | Compound NOT metabolized | Compound metabolized |  |  |  |  |  |
| CCCC(=O)Nc1ccc(OCC(O)CNC(C)C)c(C(C)=O)c1 (stereo not given) [ACEBUTOLOL] |  | Compound NOT metabolized | Compound NOT metabolized | Compound NOT metabolized | Compound NOT metabolized | Compound NOT metabolized | Compound NOT metabolized | Compound NOT metabolized | Compound NOT metabolized | Compound NOT metabolized | Compound NOT metabolized | Compound NOT metabolized | Compound NOT metabolized | Compound NOT metabolized | Compound NOT metabolized | Compound NOT metabolized | Compound NOT metabolized | Compound NOT metabolized | Compound NOT metabolized | Compound NOT metabolized |
| CCC1(c2ccc(N)cc2)CCC(=O)NC1=O (stereo not given) [AMINOGLUTETHIMIDE] |  | Compound NOT metabolized | Compound NOT metabolized | Compound NOT metabolized |  |  | Compound NOT metabolized | Compound NOT metabolized | Compound NOT metabolized | Compound NOT metabolized | Compound NOT metabolized | Compound NOT metabolized | Compound NOT metabolized | Compound NOT metabolized | Compound NOT metabolized | Compound NOT metabolized | Compound NOT metabolized | Compound NOT metabolized | Compound NOT metabolized | Compound NOT metabolized |
| CC(C)NCC(O)COc1ccc(CCOCC2CC2)cc1 (stereo not given) [BETAXOLOL] |  |  | Compound NOT metabolized | Compound NOT metabolized | Compound NOT metabolized | Compound NOT metabolized | Compound NOT metabolized | Compound NOT metabolized | Compound NOT metabolized | Compound NOT metabolized | Compound NOT metabolized | Compound NOT metabolized | Compound NOT metabolized | Compound NOT metabolized | Compound NOT metabolized | Compound NOT metabolized | Compound NOT metabolized | Compound NOT metabolized | Compound NOT metabolized | Compound NOT metabolized |
| OC(CCN1CCCCC1)(c1ccccc1)C1CC2C=CC1C2 (stereo not given) [BIPERIDEN] |  | Compound NOT metabolized | Compound NOT metabolized | Compound NOT metabolized | Compound NOT metabolized | Compound NOT metabolized | Compound NOT metabolized | Compound NOT metabolized | Compound NOT metabolized | Compound NOT metabolized | Compound NOT metabolized | Compound NOT metabolized | Compound NOT metabolized | Compound NOT metabolized | Compound NOT metabolized | Compound NOT metabolized | Compound NOT metabolized | Compound NOT metabolized | Compound NOT metabolized | Compound NOT metabolized |
| Br.CN(C)CCCC1(c2ccc(F)cc2)OCc2cc(C#N)ccc21 (stereo not given) [CITALOPRAM HYDROBROMIDE] |  |  | Compound NOT metabolized | Compound NOT metabolized | Compound NOT metabolized | Compound NOT metabolized | Compound NOT metabolized | Compound NOT metabolized | Compound NOT metabolized | Compound NOT metabolized | Compound NOT metabolized | Compound NOT metabolized | Compound NOT metabolized | Compound NOT metabolized | Compound NOT metabolized | Compound NOT metabolized | Compound NOT metabolized | Compound NOT metabolized | Compound NOT metabolized | Compound NOT metabolized |
| CN1CCC[C@@H]1CCO[C@](C)(c1ccccc1)c1ccc(Cl)cc1.O=C(O)/C=C/C(=O)O [CLEMASTINE FUMARATE] | Compound metabolized | Compound metabolized | Compound NOT metabolized |  | Compound NOT metabolized | Compound metabolized | Compound metabolized | Compound metabolized | Compound metabolized |  | Compound NOT metabolized | Compound NOT metabolized | Compound metabolized | Compound NOT metabolized | Compound NOT metabolized | Compound NOT metabolized |  |  |  |  |
| CN1CCN(C2=Nc3cc(Cl)ccc3Nc3ccccc32)CC1 [CLOZAPINE] |  | Compound NOT metabolized | Compound NOT metabolized | Compound NOT metabolized | Compound NOT metabolized | Compound NOT metabolized |  | Compound NOT metabolized | Compound NOT metabolized | Compound NOT metabolized | Compound NOT metabolized | Compound NOT metabolized |  | Compound NOT metabolized | Compound NOT metabolized | Compound NOT metabolized | Compound NOT metabolized | Compound NOT metabolized | Compound NOT metabolized |  |
| c1ccc([C@H]2CN3CCSC3=N2)cc1 [LEVAMISOLE] | Compound metabolized | Compound metabolized | Compound NOT metabolized | Compound metabolized | Compound NOT metabolized | Compound metabolized | Compound metabolized | Compound metabolized | Compound metabolized | Compound NOT metabolized | Compound metabolized | Compound metabolized | Compound NOT metabolized | Compound metabolized | Compound metabolized | Compound NOT metabolized | Compound NOT metabolized | Compound NOT metabolized |  | Compound metabolized |

Source: ChEMBL document CHEMBL5303573, “Mapping human microbiome drug metabolism by gut bacteria and their genes” (Nature, 2019)
